According to ChEMBL document CHEMBL1140022, “Adenosine phosphonate inhibitors of lipid II: alanyl tRNA ligase MurM from Streptococcus pneumoniae” (Bioorg Med Chem Lett, 2007):
The source made the active and inactive calls. No cut-off for these calls is given here.

Columns and labels:
[1] = Inhibition of Streptococcus pneumoniae 159 MurM
[2] = system: Streptococcus pneumoniae; assay: Antibacterial activity against penicillin-resistant Streptococcus pneumoniae 159 at 1 mM; type: functional, organism-based
[3] = system: Streptococcus pneumoniae; assay: Inhibition of Streptococcus pneumoniae 159 MurM at 1 mM

SMILES | IC50 [1] | Activity [2] | Activity [3]
CC(N)P(=O)(O)O[C@H]1C[C@H](n2cnc3c(N)ncnc32)O[C@@H]1CO (some centres undefined) | 100 µM | inactive | –
COc1ccc(CC(N)C(=O)N[C@H]2[C@@H](O)[C@H](n3cnc4c(N(C)C)ncnc43)O[C@@H]2CO)cc1 (single isomer, unassigned) | – | – | inactive
CC(N)P(=O)(O)O[C@@H]1[C@H](O)[C@@H](CO)O[C@H]1n1cnc2c(N)ncnc21 (some centres undefined) | 780 µM | – | –
